Data reported in patent US10172355B2, “Safened herbicidal compositions including 4-amino-3-chloro-5-fluoro-6-(4-chloro-2-fluoro-3-methoxyphenyl)pyridine-2-carboxylic acid or a derivative thereof for use in rice” (Dow AgroSciences LLC, priority 2012, dated 2019).
Where two headings read alike, the source gives them in different places.

Tested on: ORYSA=Orysa sativa, Rice
Assay: Postemergence foliar-applied herbicides and safeners in direct-seeded rice, visual injury
Format: in vivo
Settings: for Visual crop injury (%) at 140 g/ha: Oryza sativa, 480 h, read-out: Visual Injury (%) - 20 DAA ORYSA-‘Clearfield 171’ Obs, foliar, Compound A form 140 g ae/ha alone; for Visual crop injury (%) at 140 g/ha / Visual Injury (%) - 21 DAA ORYSA-‘Clearfield 171’ Obs / Visual Injury (%) - 21 DAA ORYSA-‘Neptune’ Obs / Visual Injury (%) - 21 DAA ORYSA-‘Wells’ Obs: foliar; for Visual Injury (%) - 21 DAA ORYSA-‘Clearfield 171’ Obs / Visual Injury (%) - 21 DAA ORYSA-‘Neptune’ Obs / Visual Injury (%) - 21 DAA ORYSA-‘Wells’ Obs: Compound A form 70 g ae/ha alone, Tables 1,2,7,8; for Mean Visual Injury (%) - 20-22 DAA ORYSA ‘Clearfield 171’ / Mean Visual Injury (%) - 20-22 DAA ORYSA ‘Wells’: post-emergence foliar
Description: Seeds or nutlets of the desired test plant species were planted in a soil matrix prepared by mixing a loam or sandy loam soil (e.g., 28.6 percent silt, 18.8 percent clay, and 52.6 percent sand, with a pH of about 5.8 and an organic matter content of about 1.8 percent) and calcareous grit in an 80 to 20 ratio. The soil matrix was contained in plastic pots with a surface area of 84.6 square centimeters (cm^2). When required to ensure good germination and healthy plants, a fungicide treatment and/or other chemical or physical treatment was applied. The plants were grown for 8-22 days in a greenhouse with an approximate 14 hr photoperiod which was maintained at about 29° C. during the day and 26° C. during the night. Nutrients (Peters Excel 15-5-15 5-Ca 2-Mg and iron chelate) were applied in the irrigation solution as needed and water was added on a regular basis. Supplemental lighting was provided with overhead metal halide 1000-Watt lamps as necessary. The plants were employed for testing when they reached the second or third true leaf stage.
Treatments consisted of the acid or esters of 4-amino-3-chloro-5-fluoro-6-(4-chloro-2-fluoro-3-methoxy-phenyl)pyridine-2-carboxylic acid (compound A) and various safener components alone and in combination. Forms of compound A were applied on an acid equivalent basis. Safener components were applied on an active ingredient or acid equivalent basis depending on the compound.
Treatment requirements were calculated based upon the rates being tested, the concentration of active ingredient or acid equivalent in the formulation, and a 12 mL application volume at a rate of 187 L/ha.
For treatments comprised of formulated compounds, measured amounts of compounds were placed individually in 25 mL glass vials and diluted in a volume of 1.25% (v/v) Agri-dex crop oil concentrated to obtain 12× stock solutions. […] Application solutions were prepared by adding an appropriate amount of each stock solution (e.g., 1 mL) and diluted to the appropriate final concentrations with the addition of 10 mL of an aqueous mixture of 1.25% (v/v) Agri-dex crop oil concentrate so that the final spray solutions contained 1.25% (v/v) Agri-dex crop oil concentrate.
For treatments comprised of technical compounds, weighed amounts were placed individually in 25 mL glass vials and dissolved in a volume of 97:3 v/v acetone/DMSO to obtain 12× stock solutions. […] Application solutions were prepared by adding an appropriate amount of each stock solution (e.g., 1 mL) and diluted to the appropriate final concentrations with the addition of 10 mL of an aqueous mixture of 1.5% (v/v) Agri-dex crop oil concentrate so that the final spray solutions contained 1.25% (v/v) Agri-dex crop oil concentrate. When technical materials were used, the concentrated stock solutions were added to the spray solutions so that the final acetone and DMSO concentrations of the application solutions were […], respectively.
For treatments comprised of formulated and technical compounds, weighed amounts of the technical materials were placed individually in 25 mL glass vials and dissolved in a volume of 97:3 v/v acetone/DMSO to obtain 12× stock solutions, and measured amounts of the formulated compounds were placed individually in 25 mL glass vials and diluted in a volume of 1.5% (v/v) Agri-dex crop oil concentrate or water to obtain 12× stock solutions. […] Application solutions were prepared by adding an appropriate amount of each stock solution (e.g., 1 mL) and diluted to the appropriate final concentrations with the addition of an appropriate amount of an aqueous mixture of 1.5% (v/v) Agri-dex crop oil concentrate so that the final spray solutions contained 1.25% (v/v) Agri-dex crop oil concentrate. When required, additional water and/or 97:3 v/v acetone/DMSO was added to individual application solutions so that the final acetone and DMSO concentrations of the application solutions being compared were 8.1% and 0.25%, respectively. […]

SMILES	Visual crop injury (%) at 140 g/ha (trial of Tables 3,4,6,10,12,14) [%]	Visual crop injury (%) at 140 g/ha (trial of Tables 5,9,11,13) [%]	Visual Injury (%) - 21 DAA ORYSA-‘Clearfield 171’ Obs [%]	Visual Injury (%) - 21 DAA ORYSA-‘Neptune’ Obs [%]	Visual Injury (%) - 21 DAA ORYSA-‘Wells’ Obs [%]	Mean Visual Injury (%) - 20-22 DAA ORYSA ‘Clearfield 171’ (2 g ae/ha) [%]	Mean Visual Injury (%) - 20-22 DAA ORYSA ‘Wells’ (2 g ae/ha) [%]	Mean Visual Injury (%) - 20-22 DAA ORYSA ‘Clearfield 171’ (4 g ae/ha) [%]	Mean Visual Injury (%) - 20-22 DAA ORYSA ‘Wells’ (4 g ae/ha) [%]	Mean Visual Injury (%) - 20-22 DAA ORYSA ‘Clearfield 171’ (8 g ae/ha) [%]	Mean Visual Injury (%) - 20-22 DAA ORYSA ‘Wells’ (8 g ae/ha) [%]	Mean Visual Injury (%) - 20-22 DAA ORYSA ‘Clearfield 171’ (16 g ae/ha) [%]	Mean Visual Injury (%) - 20-22 DAA ORYSA ‘Wells’ (16 g ae/ha) [%]	Mean Visual Injury (%) - 20-22 DAA ORYSA ‘Clearfield 171’ (32 g ae/ha) [%]	Mean Visual Injury (%) - 20-22 DAA ORYSA ‘Wells’ (32 g ae/ha) [%]
COc1c(Cl)ccc(-c2nc(C(=O)O)c(Cl)c(N)c2F)c1F [Acid, 4-amino-3-chloro-6-(4-chloro-2-fluoro-3-methoxyphenyl)-5-fluoropyridine-2-carboxylic acid]	43	38	22	40	12	0	0	0	0	2	0	11	7	24	12
COc1c(Cl)ccc(-c2nc(C(=O)OCc3ccccc3)c(Cl)c(N)c2F)c1F [Benzyl]	13	15	0	5	0	0	0	0	0	0	0	8	3	3	3
